From patent US11566007B2, “Ras inhibitors” (Revolution Medicines, Inc., priority 2019, dated 2023)
Read-outs that look alike come from different tables or passages of the source.

Experiments:
KRAS G12S = KRAS G12S (Homo sapiens (Human), UniProt P01116+P62937, G12S); assay: Ras-Raf (BRAF RBD) disruption / FRET / MOA assay, KRAS G12S; assay type: biochemical; conditions: Ras-Raf disruption/FRET/MOA assay; class symbols; read-out: KRAS G12S FRET data IC50
Method in brief: (§1)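 Compounds, top final concentration 30 μM in 10-point 3-fold series, incubated 3 hours at 25° C with nucleotide-loaded Ras, cyclophilin A and BRAF RBD.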

K-Ras G13C = K-Ras G13C (Homo sapiens (Human), UniProt P01116+P62937, G13C); assay: Ras-Raf (BRAF RBD) disruption / FRET / MOA assay, KRAS G13C; assay type: biochemical; conditions: KRAS G13C; Ras-Raf disruption/FRET/MOA assay; read-out: IC50* KRAS G13C FRET data
Sequence of K-Ras G13C (P01116-2 other isoform, or with tags, fused parts or gaps G13C): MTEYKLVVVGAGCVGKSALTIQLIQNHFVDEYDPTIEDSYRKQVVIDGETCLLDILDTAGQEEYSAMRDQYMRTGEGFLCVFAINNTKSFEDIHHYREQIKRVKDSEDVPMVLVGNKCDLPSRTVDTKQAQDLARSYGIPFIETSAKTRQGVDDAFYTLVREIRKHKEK
Sequence of K-Ras G13C (P62937 whole entry): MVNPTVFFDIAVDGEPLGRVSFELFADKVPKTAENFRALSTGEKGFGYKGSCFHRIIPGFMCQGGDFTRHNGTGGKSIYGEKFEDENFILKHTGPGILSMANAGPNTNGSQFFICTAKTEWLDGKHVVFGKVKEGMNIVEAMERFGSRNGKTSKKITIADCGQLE
Method in brief: as §1

NCI-H358 (K-Ras G12C) = assay: CellTiter-Glo cell viability assay, NCI-H358; assay type: cell-based, human; conditions: Homo sapiens, NCI-H358, 120 h, class symbols
Method in brief: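 Steps: compound dispensed into wells holding cells; incubation to day 5; ~30 min room-temperature equilibration; luminescence read; sample signal divided by mean DMSO signal, times 100; four-parameter logistic curve fit.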

KRAS G12D = KRAS G12D (Homo sapiens (Human), UniProt P01116+P62937, G12D); assay: Ras-Raf (BRAF RBD) disruption / FRET / MOA assay, KRAS G12D; assay type: biochemical; conditions: Ras-Raf disruption/FRET/MOA assay; class symbols; read-out: KRAS G12D FRET data IC50
Sequence of KRAS G12D (P01116-2 other isoform, or with tags, fused parts or gaps G12D): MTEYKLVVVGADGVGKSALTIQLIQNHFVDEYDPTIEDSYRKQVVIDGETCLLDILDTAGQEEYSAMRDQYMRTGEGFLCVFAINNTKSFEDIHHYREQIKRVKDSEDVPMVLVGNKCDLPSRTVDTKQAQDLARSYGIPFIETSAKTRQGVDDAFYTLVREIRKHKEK
Sequence of KRAS G12D (P62937 whole entry): as the sequence (P62937 whole entry) above
Method in brief: as §1

[1] = test system: NCI-H358 cells (K-Ras G12C); assay: Potency assay: pERK in NCI-H358 cells; assay type: cell-based, human; conditions: Homo sapiens, NCI-H358; H358 KRAS G12C; read-out: pERK EC50
Method in brief: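 Inhibition of cellular pERK after a 4 h treatment, detected by AlphaLISA or In-Cell Western. IC50 from a four-parameter concentration-response fit.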

NRAS G12C = NRAS G12C (Homo sapiens (Human), UniProt P01111+P62937, G12C); assay: Ras-Raf (BRAF RBD) disruption / FRET / MOA assay, NRAS G12C; assay type: biochemical; conditions: read-out: IC50* NRAS G12C FRET data
Sequence of NRAS G12C (P01111 whole entry G12C): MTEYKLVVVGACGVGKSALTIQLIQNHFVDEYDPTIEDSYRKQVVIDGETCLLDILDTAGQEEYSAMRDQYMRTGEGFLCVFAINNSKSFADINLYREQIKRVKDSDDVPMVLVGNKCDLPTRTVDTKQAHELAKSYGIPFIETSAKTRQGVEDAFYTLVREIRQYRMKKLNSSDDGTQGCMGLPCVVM
Sequence of NRAS G12C (P62937 whole entry): as the sequence (P62937 whole entry) above
Method in brief: as §1

KRAS G12V = KRAS G12V (Homo sapiens (Human), UniProt P01116+P62937, G12V); assay: Ras-Raf (BRAF RBD) disruption / FRET / MOA assay, KRAS G12V; assay type: biochemical; conditions: read-out: IC50* KRAS G12V FRET data
Sequence of KRAS G12V (P01116-2 other isoform, or with tags, fused parts or gaps G12V): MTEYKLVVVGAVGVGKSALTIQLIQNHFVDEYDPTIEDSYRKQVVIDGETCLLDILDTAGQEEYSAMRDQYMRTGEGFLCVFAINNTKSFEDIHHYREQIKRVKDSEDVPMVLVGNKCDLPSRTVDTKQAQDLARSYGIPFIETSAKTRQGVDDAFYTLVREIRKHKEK
Sequence of KRAS G12V (P62937 whole entry): as the sequence (P62937 whole entry) above
Method in brief: as §1

K-Ras G12C = K-Ras G12C (Homo sapiens (Human), UniProt P01116+P62937, G12C); assay: Ras-Raf (BRAF RBD) disruption / FRET / MOA assay, KRAS G12C; assay type: biochemical; conditions: KRAS G12C; Ras-Raf disruption/FRET/MOA assay; read-out: IC50* KRAS G12C FRET data
Sequence of K-Ras G12C (P01116-2 other isoform, or with tags, fused parts or gaps G12C): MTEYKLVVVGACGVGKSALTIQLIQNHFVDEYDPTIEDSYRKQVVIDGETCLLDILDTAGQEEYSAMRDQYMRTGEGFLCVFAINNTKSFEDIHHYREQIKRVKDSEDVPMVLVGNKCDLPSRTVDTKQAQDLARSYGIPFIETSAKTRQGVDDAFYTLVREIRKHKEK
Sequence of K-Ras G12C (P62937 whole entry): as the sequence (P62937 whole entry) above
Method in brief: as §1

KRAS WT = KRAS WT (Homo sapiens (Human), UniProt P01116+P62937); assay: Ras-Raf (BRAF RBD) disruption / FRET / MOA assay, KRAS WT; assay type: biochemical; conditions: read-out: IC50* KRAS WT FRET data
Sequence of KRAS WT (P01116-2 other isoform, or with tags, fused parts or gaps): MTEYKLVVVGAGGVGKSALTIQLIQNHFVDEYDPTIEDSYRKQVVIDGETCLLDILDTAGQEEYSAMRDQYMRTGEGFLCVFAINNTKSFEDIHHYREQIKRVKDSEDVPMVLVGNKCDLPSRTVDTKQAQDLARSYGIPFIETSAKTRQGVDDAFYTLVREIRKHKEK
Sequence of KRAS WT (P62937 whole entry): as the sequence (P62937 whole entry) above
Method in brief: as §1

KRAS G13D = KRAS G13D (Homo sapiens (Human), UniProt P01116+P62937, G13D); assay: Ras-Raf (BRAF RBD) disruption / FRET / MOA assay, KRAS G13D; assay type: biochemical; conditions: read-out: IC50* KRAS G13D FRET data
Sequence of KRAS G13D (P01116-2 other isoform, or with tags, fused parts or gaps G13D): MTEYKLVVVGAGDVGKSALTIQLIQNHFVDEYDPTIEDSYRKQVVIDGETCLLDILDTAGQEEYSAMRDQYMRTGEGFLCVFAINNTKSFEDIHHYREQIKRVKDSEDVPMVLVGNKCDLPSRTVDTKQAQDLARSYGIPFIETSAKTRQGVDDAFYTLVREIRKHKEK
Sequence of KRAS G13D (P62937 whole entry): as the sequence (P62937 whole entry) above
Method in brief: as §1

[2] = NCI-H358, 5-day treatment, read-out: Additional H358 Cell Viability assay data (K-Ras G12C, IC50)

Sequence of KRAS G12S (P01116-2 other isoform, or with tags, fused parts or gaps G12S): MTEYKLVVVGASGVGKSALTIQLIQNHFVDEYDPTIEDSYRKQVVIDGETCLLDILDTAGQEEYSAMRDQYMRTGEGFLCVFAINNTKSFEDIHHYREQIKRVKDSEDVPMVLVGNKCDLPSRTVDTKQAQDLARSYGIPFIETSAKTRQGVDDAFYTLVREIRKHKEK
Sequence of KRAS G12S (P62937 whole entry): as the sequence (P62937 whole entry) above

CCn1c(-c2cccnc2[C@H](C)OC)c2c3cc(ccc31)-c1cc(O)cc(c1)C[C@H](NC(=O)[C@H](C(C)C)N(C)C(=O)[C@H]1CCN(C(=O)C#CCOC)C1)C(=O)N1CCC[C@H](N1)C(=O)OCC(C)(C)C2 [Example A266]
IC50 (KRAS G12S): 10 to 100 nM
IC50 (K-Ras G13C): 10 to 100 nM
IC50 (NCI-H358 (K-Ras G12C); [2]): < 0.01 µM
IC50 (KRAS G12D): 100 to 1000 nM
EC50 [1]: < 5000 nM
IC50 (NRAS G12C): < 10 nM
IC50 (KRAS G12V): 10 to 100 nM
IC50 (K-Ras G12C): < 10 nM
IC50 (KRAS WT): 100 to 1000 nM
IC50 (KRAS G13D): 100 to 1000 nM

C=CC(=O)N1CC[C@H](C(=O)N(C)[C@H](C(=O)N[C@@H]2C(=O)N3CCC[C@H](N3)C(=O)OCC(C)(C)Cc3c(-c4cncnc4)n(CC)c4ccc(cc34)-c3cccc(c3)[C@H]2O)C(C)C)C1 [Example A272]
IC50 (KRAS G12S): > 10000 nM
IC50 (K-Ras G13C): > 10000 nM
IC50 (NCI-H358 (K-Ras G12C); [2]): > 1 µM
IC50 (KRAS G12D): > 10000 nM
EC50 [1]: < 5000 nM
IC50 (NRAS G12C): > 10000 nM
IC50 (KRAS G12V): > 10000 nM
IC50 (K-Ras G12C): 1000 to 10000 nM
IC50 (KRAS WT): > 10000 nM
IC50 (KRAS G13D): > 10000 nM

C=CC(=O)N1CC[C@H](C(=O)N(C)[C@H](C(=O)N[C@H]2Cc3cc(O)cc(c3)-c3ccc4c(c3)c(c(-c3cnccc3[C@@H](OC)C3CC3)n4CC)CC(C)(C)COC(=O)[C@@H]3CCCN(N3)C2=O)C(C)C)C1 [Example A274]
IC50 (KRAS G12S): > 10000 nM
IC50 (K-Ras G13C): > 10000 nM
IC50 (NCI-H358 (K-Ras G12C); [2]): 0.1 to 1 µM
IC50 (KRAS G12D): > 10000 nM
EC50 [1]: < 5000 nM
IC50 (NRAS G12C): 1000 to 10000 nM
IC50 (KRAS G12V): > 10000 nM
IC50 (K-Ras G12C): 1000 to 10000 nM
IC50 (KRAS WT): > 10000 nM
IC50 (KRAS G13D): > 10000 nM

CCn1c(-c2cccnc2[C@H](C)OC)c2c3cc(ccc31)-c1csc(n1)C[C@H](NC(=O)[C@H](C(C)C)N(C)C(=O)[C@H]1CCC(C(=O)/C=C/CN(C)C)C1)C(=O)N1CCC[C@H](N1)C(=O)OCC(C)(C)C2 (some centres unmarked) [Example A282]
IC50 (KRAS G12S): 1000 to 10000 nM
IC50 (K-Ras G13C): 1000 to 10000 nM
IC50 (NCI-H358 (K-Ras G12C); [2]): 0.01 to 0.1 µM
IC50 (KRAS G12D): 1000 to 10000 nM
EC50 [1]: < 5000 nM
IC50 (NRAS G12C): 100 to 1000 nM
IC50 (KRAS G12V): 1000 to 10000 nM
IC50 (K-Ras G12C): 100 to 1000 nM
IC50 (KRAS WT): 1000 to 10000 nM
IC50 (KRAS G13D): 1000 to 10000 nM

C=CC(=O)N1CCC2(CCN([C@H](C(=O)N[C@H]3Cc4cc(O)cc(c4)-c4ccc5c(c4)c(c(-c4cccnc4[C@H](C)OC)n5CC)CC(C)(C)COC(=O)[C@@H]4CCCN(N4)C3=O)C(C)C)C2=O)C1 (some centres unmarked) [Example A295]
IC50 (KRAS G12S): 10 to 100 nM
IC50 (K-Ras G13C): 10 to 100 nM
IC50 (NCI-H358 (K-Ras G12C); [2]): < 0.01 µM
IC50 (KRAS G12D): 100 to 1000 nM
EC50 [1]: < 5000 nM
IC50 (NRAS G12C): 10 to 100 nM
IC50 (KRAS G12V): 10 to 100 nM
IC50 (K-Ras G12C): 10 to 100 nM
IC50 (KRAS WT): 10 to 100 nM
IC50 (KRAS G13D): 100 to 1000 nM

C=CS(=O)(=O)N1CCC2(CCN([C@H](C(=O)N[C@H]3Cc4cc(O)cc(c4)-c4ccc5c(c4)c(c(-c4cccnc4[C@H](C)OC)n5CC)CC(C)(C)COC(=O)[C@@H]4CCCN(N4)C3=O)C(C)C)C2=O)C1 (some centres unmarked) [Example A298]
IC50 (KRAS G12S): 10 to 100 nM
IC50 (K-Ras G13C): < 10 nM
IC50 (NCI-H358 (K-Ras G12C); [2]): < 0.01 µM
IC50 (KRAS G12D): 100 to 1000 nM
EC50 [1]: < 5000 nM
IC50 (NRAS G12C): < 10 nM
IC50 (KRAS G12V): 10 to 100 nM
IC50 (K-Ras G12C): < 10 nM
IC50 (KRAS WT): 10 to 100 nM
IC50 (KRAS G13D): 10 to 100 nM

CCn1c(-c2cccnc2[C@H](C)OC)c2c3cc(ccc31)-c1cccc(c1)C[C@H](NC(=O)[C@H](C(C)C)N(C)C(=O)[C@H]1CCN(C(=O)C#C[C@]3(C)CCCN3C)C1)C(=O)N1CCC[C@H](N1)C(=O)OCC(C)(C)C2 [Example A317]
IC50 (KRAS G12S): 1000 to 10000 nM
IC50 (K-Ras G13C): 1000 to 10000 nM
IC50 (NCI-H358 (K-Ras G12C); [2]): < 0.01 µM
IC50 (KRAS G12D): > 10000 nM
EC50 [1]: < 5000 nM
IC50 (NRAS G12C): 10 to 100 nM
IC50 (KRAS G12V): 1000 to 10000 nM
IC50 (K-Ras G12C): < 10 nM
IC50 (KRAS WT): 1000 to 10000 nM
IC50 (KRAS G13D): > 10000 nM

C=CC(=O)N1C2CC1CN(C(=O)N(C)[C@H](C(=O)N[C@H]1Cc3nc(cs3)-c3ccc4c(c3)c(c(-c3cccnc3[C@H](C)OC)n4CC)CC(C)(C)COC(=O)[C@@H]3CCCN(N3)C1=O)C(C)C)C2 [Example A408]
IC50 (KRAS G12S): 100 to 1000 nM
IC50 (K-Ras G13C): 100 to 1000 nM
IC50 (NCI-H358 (K-Ras G12C); read-out: Additional H358 Cell Viability assay data (K-Ras G12C, IC50, uM), NCI-H358, 5-day treatment): 0.01 to 0.1 µM
IC50 (KRAS G12D): 1000 to 10000 nM
EC50 [1]: < 5000 nM
IC50 (NRAS G12C): 100 to 1000 nM
IC50 (KRAS G12V): 100 to 1000 nM
IC50 (K-Ras G12C): 100 to 1000 nM
IC50 (KRAS WT): 100 to 1000 nM
IC50 (KRAS G13D): 1000 to 10000 nM
